Marks after values point to notes of the source that are not given here.
What was measured:
[1] = system: patients with end stage renal disease (ESRD) on hemodialysis; experiment: Randomized, double-blind, placebo-controlled, dose-ranging study of ferric citrate on serum phosphate, calcium and Ca x PO4; format: in vivo, human; settings: for Serum Ca: Linear Regression: N.S.: Not Significant
Description: Ferric citrate is supplied in 500 mg capsules, whereas the placebo will be provided in identical-looking capsules (indistinguishable from those containing the active drug); the placebo capsules will contain sorbitol and colorant to match the powder color of the active capsules. The placebo capsule shells will be identical to the active capsule shells.
An non-limiting example of a dosing regimen is provided below. This is not meant to limit the invention as to how an effective amount of ferric citrate is selected, or the form in which it is provided or the frequency of administering the composition per day. The following merely illustrates how ferric citrate and placebo may be administered; e.g., as 500 mg capsules of identical appearance. All patients may receive (in a blinded fashion) 4 capsules with each of three meals, on a daily basis, for 28 days. Patients will be instructed to take the study medication within 10 minutes of finishing their meals (breakfast, lunch, and dinner).
Each patient's participation in the trial lasts for up to 8 weeks: the screening period (approximately 1-2 weeks), a 1-2 week washout, and 4 weeks of treatment with study medication.
The change in serum PO4 concentration at Days 14 and 28 from baseline.
The change in serum calcium concentration at Days 14 and 28 from baseline.
The change in the Ca′PO4 product at Days 14 and 28 from baseline.
Objectives: (1) To determine the effect of ferric citrate at doses of 2, 4 and 6 g daily, administered TID (three times a day), for 28 days on serum phosphate (PO4) levels in patients with end stage renal disease (ESRD). (2) To evaluate the safety of ferric citrate at doses of 2, 4, 6 g daily, administered TID, for 28 days in patients with ESRD.
Study Design: Randomized, double-blind, placebo-controlled, dose-ranging study to assess the effect of ferric citrate on serum phosphate concentrations in patients with ESRD on hemodialysis. Patients are assessed at Study Days 14 and 28 for effectiveness as measured by serum phosphate concentrations. Patients who received one or more doses of study medication are also assessed for safety.
Study Duration: 8 weeks (including the screening period, 2 weeks washout, 4 weeks treatment)
Ferric citrate is administered orally, and is given equally three times a day.

[2] = system: patients with end stage renal disease (ESRD); experiment: Open-label extension of Phase II study: serum creatinine level; format: in vivo, human; settings: several patients who received 6 g/day
Excerpt: Glomerular filtration rate (GFR) level correlates with structural kidney damage and is used as a golden standard to measure kidney function. GFR can be estimated by the biomarkers serum creatinine. As renal function deteriorates, kidney lost its function to excrete creatinine effectively and lead to creatinine retention in the body. Therefore, increase of serum creatinine indicates lowering GFR and is an important sign of kidney deterioration.
In an open-label extension of a Phase II clinical study: “randomized, double-blind, placebo-controlled, dose-ranging study of the effects of ferric citrate on serum phosphate in patients with end stage renal disease (ESRD)”, some of the patients were administered 2˜6 g/day of ferric citrate and serum creatinine level was monitored to assess kidney function.

[3] = 2 g/day (N = 31), Day 0 (baseline)
[4] = 4 g/day (N = 32), Day 0 (baseline)
[5] = 6 g/day (N = 32), Day 0 (baseline)
[6] = 6 g/day (N = 32), Day 28, P < 0.05 baseline change vs placebo
[7] = at 0, 2, and 6 gm/day, TID immediately after meals, oral

ferric citrate
Serum [Ca] [1, 3]: 8.78 ± 0.981 mg/dL
Serum [PO4] [1, 3]: 7.1 ± 1.23 mg/dL
[Ca] * [PO4] [1, 3]: 62.9 ± 13.25 (mg/dL)^2
Serum [Ca] ([1]; 2 g/day (N = 31), Day 14): 9.01 ± 1.232 mg/dL
Serum [PO4] ([1]; 2 g/day (N = 31), Day 14): 6.7 ± 1.50 mg/dL
[Ca] * [PO4] ([1]; 2 g/day (N = 31), Day 14): 60.3 ± 16.50 (mg/dL)^2
Serum [Ca] ([1]; 2 g/day (N = 31), Day 28): 9.00 ± 0.953 mg/dL
Serum [PO4] ([1]; 2 g/day (N = 31), Day 28): 6.9 ± 2.22 mg/dL
[Ca] * [PO4] ([1]; 2 g/day (N = 31), Day 28): 61.7 ± 21.25 (mg/dL)^2
Serum [Ca] [1, 4]: 9.02 ± 0.913 mg/dL
Serum [PO4] [1, 4]: 7.1 ± 1.27 mg/dL
[Ca] * [PO4] [1, 4]: 63.5 ± 10.69 (mg/dL)^2
Serum [Ca] ([1]; 4 g/day (N = 32), Day 14): 9.47 ± 0.990 mg/dL
Serum [PO4] ([1]; 4 g/day (N = 32), Day 14): 6.4 ± 1.56 mg/dL
[Ca] * [PO4] ([1]; 4 g/day (N = 32), Day 14): 59.9 ± 13.89 (mg/dL)^2
Serum [Ca] ([1]; 4 g/day (N = 32), Day 28): 9.29 ± 0.960 mg/dL
Serum [PO4] ([1]; 4 g/day (N = 32), Day 28): 6.0 ± 1.33 mg/dL
[Ca] * [PO4] ([1]; 4 g/day (N = 32), Day 28): 55.4 ± 13.36 (mg/dL)^2
Serum [Ca] [1, 5]: 8.99 ± 0.812 mg/dL
Serum [PO4] [1, 5]: 7.3 ± 1.33 mg/dL
[Ca] * [PO4] [1, 5]: 65.8 ± 12.19 (mg/dL)^2
Serum [Ca] ([1]; 6 g/day (N = 32), Day 14): 9.13 ± 0.909 mg/dL
Serum [PO4] ([1]; 6 g/day (N = 32), Day 14): 6.3 ± 1.72 mg/dL
[Ca] * [PO4] ([1]; 6 g/day (N = 32), Day 14): 57.5 ± 16.27 (mg/dL)^2
Serum [Ca] ([1]; 6 g/day (N = 32), Day 28): 9.26 ± 0.865 mg/dL
Serum [PO4] [1, 6]: 5.8 ± 1.76 mg/dL
[Ca] * [PO4] [1, 6]: 54.1 ± 17.68* (mg/dL)^2
change in Ca*PO4 levels ([1]; 6 gm/day dose at both 14 and 28 days): decreased and were statistically significant
Serum Ca: Dose Response ([1]; Day 0): No
Ca × PO4: Linear Regression P ([1]; Day 14): P = 0.0401
Ca × PO4: Statistical Significant ([1]; Day 14): No
Serum Ca: Statistical Significant ([1]; Day 14): No
Serum PO4: Statistical Significant ([1]; Day 14): No
Serum Ca: Linear Regression ([1]; Day 14): N.S.
Ca × PO4: Dose Response ([1]; Day 14, placebo, 2, 4, 6 g/day): Yes
Serum Ca: Dose Response ([1]; Day 14, placebo, 2, 4, 6 g/day): No
Serum PO4: Dose Response ([1]; Day 14, placebo, 2, 4, 6 g/day): No
Ca × PO4: Linear Regression P ([1]; Day 28): P = 0.0158
Ca × PO4: Statistical Significant ([1]; Day 28): Yes (6 g/day)
Serum Ca: Statistical Significant ([1]; Day 28): No
Serum PO4: Linear Regression P ([1]; Day 28): P = 0.0073
Serum PO4: Statistical Significant ([1]; Day 28): Yes (6 g/day)
Serum Ca: Linear Regression ([1]; Day 28): N.S.
Ca × PO4: Dose Response ([1]; Day 28, placebo, 2, 4, 6 g/day): Yes
Serum Ca: Dose Response ([1]; Day 28, placebo, 2, 4, 6 g/day): No
Serum PO4: Dose Response ([1]; Day 28, placebo, 2, 4, 6 g/day): Yes
change in Ca*PO4 [1, 7]: decrease
change in serum PO4 [1, 7]: decrease
change in serum calcium level ([1]; during the 28 days, 2, 4, and 6 gm/day): No significant change
ability to lower the serum phosphate levels ([1]; patients with ESRD): demonstrated
serum creatinine level [2]: trend of decreased serum creatinine level
